Source: the supplement of paper PMC4862054

Tests used:
Settings in all cases: incubation time: 72 h
MDA-MB-468 [1] = assay: normalised response (% of control), CellTiter-Glo; higher = more viable cells (100 = DMSO, 0 = benzethonium chloride kill control)
Procedure, shortened: (§1)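 Each entry is the normalised signal at a single concentration within a series. The series comprised 5 concentrations in 10-fold steps over a compound-specific 10,000-fold range, placed in 384-well plates into which breast cancer cell lines were seeded as 20 µl suspension and incubated 72 h. CellTox Green (485/520 nm) fluorescence and then CellTiter-Glo luminescence were read, with signals normalised per plate to 0.1 % DMSO (100) and a positive kill control (0).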

HCC1937 [2] = assay: as above
Procedure, shortened: as §1

CAL-85-1 [3] = assay: as above
Procedure, shortened: as §1

MDA-MB-453 [4] = assay: as above
Procedure, shortened: as §1

SK-BR-3 [5] = assay: as above
Procedure, shortened: as §1

HDQ-P1 [6] = assay: as above
Procedure, shortened: as §1

MDA-MB-436 [7] = assay: as above
Procedure, shortened: as §1

CAL-120 [8] = assay: as above
Procedure, shortened: as §1

MCF-10A = assay: as above
Procedure, shortened: as §1

DU-4475 [9] = assay: as above
Procedure, shortened: as §1

BT-474 [10] = assay: as above
Procedure, shortened: as §1

HCC1143 [11] = assay: as above
Procedure, shortened: as §1

MDA-MB-231 [12] = assay: as above
Procedure, shortened: as §1

BT-549 [13] = assay: as above
Procedure, shortened: as §1

Hs578T [14] = assay: as above
Procedure, shortened: as §1

CAL-51 [15] = assay: as above
Procedure, shortened: as §1

HCC1599 [16] = assay: as above
Procedure, shortened: as §1

CAL-148 [17] = assay: as above
Procedure, shortened: as §1

MFM-223 [18] = assay: as above
Procedure, shortened: as §1

MDA-MB-468 [19] = assay: normalised viability (% of control), CellTiter-Blue; higher = more viable cells (100 = DMSO, 0 = benzethonium chloride kill control)
Procedure: (§2)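 DSRT, CellTiter-Blue viability, 72 h incubation. Signal is normalised to DMSO and benzethonium chloride controls. Value is the normalised response at dose 1.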

HCC1937 [20] = assay: as above
Procedure: as §2

CAL-85-1 [21] = assay: as above
Procedure: as §2

MDA-MB-453 [22] = assay: as above
Procedure: as §2

SK-BR-3 [23] = assay: as above
Procedure: as §2

HDQ-P1 [24] = assay: as above
Procedure: as §2

MDA-MB-436 [25] = assay: as above
Procedure: as §2

CAL-120 [26] = assay: as above
Procedure: as §2

DU-4475 [27] = assay: as above
Procedure: as §2

BT-474 [28] = assay: as above
Procedure: as §2

HCC1143 [29] = assay: as above
Procedure: as §2

MDA-MB-231 [30] = assay: as above
Procedure: as §2

BT-549 [31] = assay: as above
Procedure: as §2

Hs578T [32] = assay: as above
Procedure: as §2

CAL-51 [33] = assay: as above
Procedure: as §2

HCC1599 [34] = assay: as above
Procedure: as §2

CAL-148 [35] = assay: as above
Procedure: as §2

MFM-223 [36] = assay: as above
Procedure: as §2

SMILES	normalised response (MDA-MB-468 [1]) [%]	normalised response (HCC1937 [2]) [%]	normalised response (CAL-85-1 [3]) [%]	normalised response (MDA-MB-453 [4]) [%]	normalised response (SK-BR-3 [5]) [%]	normalised response (HDQ-P1 [6]) [%]	normalised response (MDA-MB-436 [7]) [%]	normalised response (CAL-120 [8]) [%]	normalised response (MCF-10A) [%]	normalised response (DU-4475 [9]) [%]	normalised response (BT-474 [10]) [%]	normalised response (HCC1143 [11]) [%]	normalised response (MDA-MB-231 [12]) [%]	normalised response (BT-549 [13]) [%]	normalised response (Hs578T [14]) [%]	normalised response (CAL-51 [15]) [%]	normalised response (HCC1599 [16]) [%]	normalised response (CAL-148 [17]) [%]	normalised response (MFM-223 [18]) [%]	normalised viability (MDA-MB-468 [19]) [%]	normalised viability (HCC1937 [20]) [%]	normalised viability (CAL-85-1 [21]) [%]	normalised viability (MDA-MB-453 [22]) [%]	normalised viability (SK-BR-3 [23]) [%]	normalised viability (HDQ-P1 [24]) [%]	normalised viability (MDA-MB-436 [25]) [%]	normalised viability (CAL-120 [26]) [%]	normalised viability (DU-4475 [27]) [%]	normalised viability (BT-474 [28]) [%]	normalised viability (HCC1143 [29]) [%]	normalised viability (MDA-MB-231 [30]) [%]	normalised viability (BT-549 [31]) [%]	normalised viability (Hs578T [32]) [%]	normalised viability (CAL-51 [33]) [%]	normalised viability (HCC1599 [34]) [%]	normalised viability (CAL-148 [35]) [%]	normalised viability (MFM-223 [36]) [%]
CS(=O)(=O)OCCCCOS(C)(=O)=O [Busulfan] (10 nM)	97.3	95.5	104	108	111	95.6	89.5	92.4	104	106	102	99.3	99.2	103	101	87.1	84.3	96	102	102	78.8	105	117	97	106	105	112	104	82.1	100	112	92.2	92	88.3	105	131	88.7
C#Cc1cccc(Nc2ncnc3cc(OC)c(OCCCCCCC(=O)NO)cc23)c1 [CUDC-101] (1 nM)	93.8	96.6	94.8	108	90.8	97	98.6	100	90.8	99.1	96.5	102	109	101	101	74.1	108	98.2	98.5	94.4	85.9	77.3	88	82.3	85.7	96.4	79.4	97.5	108	79.9	94.9	96	94.9	111	115	97.1	78
